Experimental data taken from ChEMBL document CHEMBL3351587, “Revised stereochemistry of ficifolidione and its biological activities against insects and cells” (J Nat Prod, 2015).
pIC50: −log10 of the molar value. Activity calls are given as the source filed them. No cut-off for these calls is given here.

Tests used:
Musca domestica = experiment: Insecticidal activity against adult housefly at 44 ug/insect administered topically; format: functional, organism-based
Culex pipiens [1] = experiment: Insecticidal activity against mosquito larvae at 1.2 ug/insect administered as injection; format: functional, organism-based
Culex pipiens [2] = experiment: Insecticidal activity against mosquito larvae at 50 uM; format: functional, organism-based
[3] = Cytotoxicity against Sf9 cells after 48 hrs by WST-8 assay; format: functional, cell-based; settings: Spodoptera frugiperda, Sf9, 48 h
Colon 26 [4] = experiment: Cytotoxicity against mouse Colon 26 cells after 48 hrs by WST-8 assay; format: functional, cell-based; settings: Colon 26, 48 h
[5] = Cytotoxicity against human HL60 cells after 48 hrs by WST-8 assay; format: functional, cell-based; settings: HL-60, 48 h
Vero = experiment: Cytotoxicity against african green monkey Vero cells after 48 hrs by WST-8 assay; format: functional, cell-based; settings: Chlorocebus sabaeus
Colon 26 [6] = experiment: Cytotoxicity against mouse Colon 26 cells at 100 uM after 48 hrs by WST-8 assay; format: functional, cell-based
Spodoptera litura [7] = experiment: Insecticidal activity against cutworms at 4 mg/disk by leaf dik assay; format: functional, organism-based
Spodoptera litura [8] = experiment: Insecticidal activity against cutworms assessed as growth inhibition at 21 ug, po for a day followed by rearing on normal diet measured up to 7 days; format: functional, organism-based
HL-60 [9] = experiment: Induction of apoptosis in human HL60 cells assessed as DNA fragmentation at 100 uM after 4 to 6 hrs by electrophoresis; format: functional, cell-based
HL-60 [10] = experiment: Induction of apoptosis in human HL60 cells assessed as activation of caspase 3 at 100 uM after 4 to 6 hrs by immunoblotiing; format: functional, cell-based
Spodoptera litura [11] = experiment: Insecticidal activity against cutworms assessed as number of weight reduced larvae at 21 ug, po for a day followed by rearing on normal diet measured on day 1 (reference value: 10 no_unit); format: functional
Spodoptera litura [12] = experiment: Insecticidal activity against cutworms assessed as number of weight reduced larvae at 21 ug, po for a day followed by rearing on normal diet measured on day 2 (reference value: 10 no_unit); format: functional
Spodoptera litura [13] = experiment: Insecticidal activity against cutworms assessed as number of weight reduced larvae at 21 ug, po for a day followed by rearing on normal diet measured on day 3 (reference value: 10 no_unit); format: functional
Spodoptera litura [14] = experiment: Insecticidal activity against cutworms assessed as number of weight reduced larvae at 21 ug, po for a day followed by rearing on normal diet measured on day 4 (reference value: 10 no_unit); format: functional
Spodoptera litura [15] = experiment: Insecticidal activity against cutworms assessed as number of weight reduced larvae at 21 ug, po for a day followed by rearing on normal diet measured on day 5 (reference value: 8.7 no_unit); format: functional
Spodoptera litura [16] = experiment: Insecticidal activity against cutworms assessed as number of weight reduced larvae at 21 ug, po for a day followed by rearing on normal diet measured on day 6 (reference value: 6.7 no_unit); format: functional
Spodoptera litura [17] = experiment: Insecticidal activity against cutworms assessed as number of weight reduced larvae at 21 ug, po for a day followed by rearing on normal diet measured on day 7 (reference value: 6.3 no_unit); format: functional

With CC(C)C[C@@H]1C[C@@]2(CC[C@H]3C[C@@H]2C3(C)C)OC2=C1C(=O)C(C)(C)C(=O)C2(C)C the Activity (Musca domestica) was “inactive”, the Activity (Culex pipiens [1]) was “inactive” and the Activity (Culex pipiens [2]) was “inactive”. It also gave a pIC50 [3] of 4.20, a pIC50 (Colon 26 [4]) of 4.87 and a pIC50 [5] of 5.44. It also gave a pIC50 (Vero) of 5.08.
For CC1(C)C(=O)CC(=O)C(C)(C)C1=O, the Activity (Colon 26 [6]) was “inactive”.
Work on CCC[C@H]1C[C@@]2(CC[C@H]3C[C@@H]2C3(C)C)OC2=C1C(=O)C(C)(C)C(=O)C2(C)C yielded a pIC50 [3] of 4.52, a pIC50 (Colon 26 [4]) of 4.90 and a pIC50 [5] of 4.71. For the same molecule, the pIC50 (Vero) was 4.84.
Molecule CCC[C@@H]1C[C@@]2(CC[C@H]3C[C@@H]2C3(C)C)OC2=C1C(=O)C(C)(C)C(=O)C2(C)C has a pIC50 [3] of 4.00, a pIC50 (Colon 26 [4]) of 4.85 and a pIC50 [5] of 4.63. For the same molecule, the pIC50 (Vero) was 4.67.
In the case of CC(C)C[C@H]1C[C@@]2(CC[C@H]3C[C@@H]2C3(C)C)OC2=C1C(=O)C(C)(C)C(=O)C2(C)C, the Activity (Musca domestica) was “inactive”, the Activity (Culex pipiens [1]) was “inactive” and the Activity (Spodoptera litura [7]) was “inactive”. For the same molecule, the Activity (Culex pipiens [2]) was “inactive”, the “growth inhibition (GI)” value (Spodoptera litura [8]) was “Active” and the pIC50 [3] was 4.49. For the same molecule, the pIC50 (Colon 26 [4]) was 5.05, the pIC50 [5] was 5.54 and the pIC50 (Vero) was 4.91. The Activity (HL-60 [9]) was “Active”, the Activity (HL-60 [10]) was “Active” and the Activity (Spodoptera litura [11]) was 10. For the same molecule, the Activity (Spodoptera litura [12]) was 10, the Activity (Spodoptera litura [13]) was 9.7 and the Activity (Spodoptera litura [14]) was 9. The Activity (Spodoptera litura [15]) was 8.7, the Activity (Spodoptera litura [16]) was 7.3 and the Activity (Spodoptera litura [17]) was 7.
With C=C1CC[C@H]2C[C@@H]1C2(C)C the Activity (Colon 26 [6]) was “inactive”.
